Results from patent US11166461B2, “Methods of controlling or preventing infestation of soybean plants by phytopathogenic microorganisms” (SYNGENTA PARTICIPATIONS AG, priority 2017, dated 2021).

What was measured:
Fusarium virguliforme [1] = assay: Seed treatments in the field against Sudden Death Syndrome (SDS) caused by Fusarium virguliforme, soybean field trial Clinton, Ill.; format: in vivo; conditions: seed treatment 0.15 mg ai/seed plus base treatment; for % efficacy based on disease incidence / % disease incidence: 107 days after planting; for % efficacy based on disease incidence: 100 − (100/(untreated/treated)); for % disease incidence: infected plants per plot; for Yield (bushel/acre) / % yield increase: 150 days after planting; for Yield (bushel/acre): full plot harvest; for % yield increase: versus untreated
Protocol: Disease assessment was done visually 29 DAS, by classifying the plants according to a disease severity scale for SDS modified from […] et al. (2011)* and J. Bond using classes from 0 to 4. The number of plants in each class were assessed. […] SDS Index=n1×0+n2×1+n3×2+n4×3+n5×4. The SDS index is normalized to give an index of 100 for the untreated, infected control ([…]) and by calculating the normalized index for all treatments relative to the […]. Shoot dry weight and shoot size was determined 29 […]., Ruberti D., Giorda L., Pioli R., Luque […]., Aoki T., & O'Donnell K.: Comparison of inoculation methods for characterizing relative aggressiveness of two soybean sudden-death syndrome pathogens, Fusarium virguliforme and F. tucumaniae. Tropical Plant Pathology, vol. 36, 3, 133-140, 2011 Effect of Different Seed Treatments in the Field Against Sudden Death Syndrome (SDS) Caused by Fusarium virguliforme A soybean field trial was carried out in Clinton, Ill., USA. This site had historically SDS occurrence reported. […] The disease occurred end of August and an assessment on disease incidence (counting of infected plants) was done Sep. 15, 2017. The yield of the grain data has been taken at the end of the season. [table] [table] [table]

Fusarium virguliforme [2] = assay: Seed treatments on soybean cv. Toliman infected with Fusarium virguliforme (growth chamber pot test); format: in vivo; conditions: 29 DAS; for % Disease severity: SDS index normalized to 100 for untreated infected control; for % Infected plants: soybean cv. Toliman
Protocol: Effect of Different Seed Treatments on Soybean Cv. Toliman Infected with Fusarium virguliforme:
Fusarium virguliforme/Soybean
5×5 soybean seeds cv. Toliman were sown into plastic pots. A mixture of 50% vol. sand and 50% vol. sterilized field soil was used as substrate. A layer of F. virguliforme infected millet seeds was placed below the soybean seeds. The test was kept in a growth chamber at 25° C. with 14 h artificial light; plants were irrigated up to field capacity. For the last five cultivation days, plants were kept at 18° C. The number of infected plants was counted 29 Days After Sowing (DAS).
Disease assessment was done visually 29 DAS, by classifying the plants according to a disease severity scale for SDS modified from Scandiani et al. (2011)* and J. Bond using classes from 0 to 4. The number of plants in each class were assessed. This allows calculating an “SDS Index” by multiplying the number of plants in each class with the disease severity (0, 1, 2, 3 or 4) and adding the products for all classes. SDS Index=n1×0+n2×1+n3×2+n4×3+n5×4. The SDS index is normalized to give an index of 100 for the untreated, infected control (UTCINF) and by calculating the normalized index for all treatments relative to the UTCINF. Shoot dry weight and shoot size was determined 29 DAS. • *Scandiani M., Ruberti D., Giorda L., Pioli R., Luque A., Bottai B., Ivancovich J., Aoki T., & O'Donnell K.: Comparison of inoculation methods for characterizing relative aggressiveness of two soybean sudden-death syndrome pathogens, Fusarium virguliforme and F. tucumaniae. Tropical Plant Pathology, vol. 36, 3, 133-140, 2011 Effect of Different Seed Treatments in the Field Against Sudden Death Syndrome (SDS) Caused by Fusarium virguliforme

SMILES	yield increase over the untreated check (Fusarium virguliforme [1])	% efficacy based on disease incidence (Fusarium virguliforme [1])	% disease incidence (Fusarium virguliforme [1])	Yield (bushel/acre) (Fusarium virguliforme [1])	% yield increase (Fusarium virguliforme [1])	Shoot dry weight (Fusarium virguliforme [2]; seed treatment 10 g ai/100 kg)	Shoot length in mm (Fusarium virguliforme [2]; seed treatment 10 g ai/100 kg)	% Disease severity (Fusarium virguliforme [2]; seed treatment 10 g ai/100 kg)	% Infected plants (Fusarium virguliforme [2]; seed treatment 10 g ai/100 kg)	Shoot dry weight (Fusarium virguliforme [2]; seed treatment 20 g ai/100 kg)	Shoot length in mm (Fusarium virguliforme [2]; seed treatment 20 g ai/100 kg)	% Disease severity (Fusarium virguliforme [2]; seed treatment 20 g ai/100 kg)	% Infected plants (Fusarium virguliforme [2]; seed treatment 20 g ai/100 kg)	yield increase (in words) (Fusarium virguliforme [1])
O=C(NC1CCC1c1ccc(Cl)cc1Cl)c1cccnc1C(F)(F)F (stereo not shown) [Compound 1]	8.11 bushels per acre	79.72%	12.17 B %	79.15 A bushel/acre	11.42%	3.57 g	505 mm	17%	28%	4.16 g	587 mm	0%	0%	
O=C(NC1CCC1c1ccc(F)cc1Cl)c1ncccc1C(F)(F)F (stereo not shown) [Compound 4]						3.89 g	541 mm	5%	8%	3.77 g	526 mm	5%	8%	
O=C(NC1CCC1c1ccc(F)cc1Cl)c1cccnc1C(F)(F)F (stereo not shown) [Compound 7]						4.09 g	565 mm	1%	4%	4.01 g	530 mm	0%	0%	
O=C(NCCc1ncc(C(F)(F)F)cc1Cl)c1ccccc1C(F)(F)F [Fluopyram, reference compound]		58.33%	25.00 B %	68.38 A bushel/acre	−3.74%									did not increase the yield
